Laboratory results as given in US10288629B1, “Method of assessing growth hormone deficiency in humans by a macimorelin containing composition” (AEterna Zentaris, Inc., priority 2017, dated 2019).

Key:
GH level [1] = test: agreement of the Macimorelin GHST with the ITT for diagnosis of AGHD; format: in vivo, human; conditions: cut-off 2.8 ng/mL macimorelin, 5.1 ng/mL ITT, N = 139
Procedure: The study protocol allowed for a 5 minutes time window for each of said time points, meaning that a blood sample collected for example within 25 to 35 min after GH provocation agent administration was […] collected for the 30 min time point.

peak GH concentrations = test: peak GH response in the macimorelin GHST and ITT; format: in vivo, human; conditions: all AGHD likelihood groups A-D; N=139; FIG. 5
Procedure: Blood samples were collected before and 30, 45, 60, and 90 minutes after administration of macimorelin and before and 15, 30, 45, 60, 90 and 120 minutes after administration of insulin to the efficacy data set subjects and GH levels were determined for all samples.

GH level [2] = test: repeatability of the macimorelin GHST; format: in vivo, human; conditions: below or above cut-off point
Description: To assess the repeatability of the macimorelin GHST, 33 subjects with a valid first macimorelin test (core study) underwent a second macimorelin test (repeatability study extension).

[3] = set-up: species or system human; conditions: in vivo
human GHS receptor = molecular target: T1, human GHS receptor (Homo sapiens, UniProt Q92847); conditions: membrane preparations from human hypothalamus and pituitary gland; compared with ghrelin; cited from earlier work
T1 construct: membrane preparations containing the GHS-receptor derived from human hypothalamus and pituitary gland; from tissue; host or cells: human hypothalamus and pituitary gland membranes
T1 sequence (Q92847 whole entry): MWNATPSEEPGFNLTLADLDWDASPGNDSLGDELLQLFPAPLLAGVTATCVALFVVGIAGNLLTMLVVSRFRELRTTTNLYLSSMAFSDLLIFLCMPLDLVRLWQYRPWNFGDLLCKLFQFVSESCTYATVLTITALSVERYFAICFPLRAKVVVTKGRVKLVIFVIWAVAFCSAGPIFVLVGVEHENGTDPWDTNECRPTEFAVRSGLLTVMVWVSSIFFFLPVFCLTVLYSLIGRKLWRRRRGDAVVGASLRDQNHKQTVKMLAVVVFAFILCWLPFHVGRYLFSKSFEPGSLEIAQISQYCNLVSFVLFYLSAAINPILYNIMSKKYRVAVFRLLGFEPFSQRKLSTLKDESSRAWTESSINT

[4] = macimorelin sample: peak of 0-90 min
[5] = macimorelin sample: peak of 45 & 60 min
[6] = macimorelin sample: peak of 60 & 90 min

Q: Which Negative % agreement (GH level [1]; macimorelin sample: 30 min) does the source give for `CC(C)(N)C(=O)N[C@H](Cc1c[nH]c2ccccc12)C(=O)N[C@H](Cc1c[nH]c2ccccc12)NC=O` [Macimorelin, macimorelin] here?
A: 73.85%

Q: And the Positive % agreement (GH level [1]; macimorelin sample: 30 min)?
A: 82.43%

Q: And the Total % agreement (GH level [1]; macimorelin sample: 30 min)?
A: 78.42%

Q: What about the Negative % agreement (GH level [1]; macimorelin sample: 45 min) of the same molecule?
A: 86.15%

Q: And the Positive % agreement (GH level [1]; macimorelin sample: 45 min)?
A: 78.38%

Q: What about the Total % agreement (GH level [1]; macimorelin sample: 45 min) of the same molecule?
A: 82.01%

Q: And the Negative % agreement (GH level [1]; macimorelin sample: 60 min)?
A: 95.31%

Q: What about the Positive % agreement (GH level [1]; macimorelin sample: 60 min) of the same molecule?
A: 81.08%

Q: What about the Total % agreement (GH level [1]; macimorelin sample: 60 min) of the same molecule?
A: 87.68%

Q: And the Negative % agreement (GH level [1]; macimorelin sample: 90 min)?
A: 84.62%

Q: And the Positive % agreement (GH level [1]; macimorelin sample: 90 min)?
A: 86.49%

Q: What about the Total % agreement (GH level [1]; macimorelin sample: 90 min) of the same molecule?
A: 85.61%

Q: And the Negative % agreement (GH level [1]; [4])?
A: 95.38%

Q: And the Positive % agreement (GH level [1]; [4])?
A: 74.32%

Q: What about the Total % agreement (GH level [1]; [4]) of the same molecule?
A: 84.17%

Q: What about the Negative % agreement (GH level [1]; [5]) of the same molecule?
A: 95.38%

Q: And the Positive % agreement (GH level [1]; [5])?
A: 75.68%

Q: What about the Total % agreement (GH level [1]; [5]) of the same molecule?
A: 84.89%

Q: And the Negative % agreement (GH level [1]; [6])?
A: 95.38%

Q: And the Positive % agreement (GH level [1]; [6])?
A: 78.38%

Q: What about the Total % agreement (GH level [1]; [6]) of the same molecule?
A: 86.33%

Q: And the Negative % agreement (GH level [1]; macimorelin sample: pre-dose)?
A: 13.85%

Q: And the Positive % agreement (GH level [1]; macimorelin sample: pre-dose)?
A: 98.65%

Q: What about the Total % agreement (GH level [1]; macimorelin sample: pre-dose) of the same molecule?
A: 58.99%

Q: What about the “peak GH levels in the macimorelin GHST as compared to the ITT” value (peak GH concentrations) of the same molecule?
A: higher peak GH levels

Q: And the “result of second macimorelin test matching result of first test” value (GH level [2]; 33 subjects)?
A: 94%

Q: What about the “subjects with reproducible test outcome (number)” value (GH level [2]; out of 33 subjects) of the same molecule?
A: 31

Q: What about the diarrhea ([3]; human) of the same molecule?
A: 1.9%

Q: What about the dizziness ([3]; human) of the same molecule?
A: 3.9%

Q: And the dysgeusia ([3]; human)?
A: 4.5%

Q: What about the fatigue ([3]; human) of the same molecule?
A: 3.9%

Q: What about the feeling hot ([3]; human) of the same molecule?
A: 1.3%

Q: And the headache ([3]; human)?
A: 3.9%

Q: And the hunger ([3]; human)?
A: 3.2%

Q: And the hyperhidrosis ([3]; human)?
A: 1.3%

Q: What about the nasopharyngitis ([3]; human) of the same molecule?
A: 1.3%

Q: And the nausea ([3]; human)?
A: 3.2%

Q: And the sinus bradycardia ([3]; human)?
A: 1.3%

Q: And the “upper respiratory tract infection” value ([3]; human)?
A: 1.9%

Q: What about the “binding potency to the human GHS receptor” value (human GHS receptor) of the same molecule?
A: comparable to that of its natural ligand, ghrelin

Q: With “ITT: insulin tolerance test: intravenous administration of insulin to induce hypoglycaemia, which leads to GH release; comparator GHST [reference compound]” as the molecule, how does the “Any TEAE (likely or possible related), % of subjects” value [3] read?
A: 94.9%

Q: What about the “Any TEAE (likely or possible related), Frequency (number of subjects)” value [3] of the same molecule?
A: 149

Q: And the “Any TEAE (likely or possible related), N AEs” value [3]?
A: 710

Q: What about the “Any TEAE, % of subjects” value [3] of the same molecule?
A: 96.2%

Q: What about the “Any TEAE, N AEs (number of all AEs)” value [3] of the same molecule?
A: 761

Q: What about the “Any test emergent severe AE, % of subjects” value [3] of the same molecule?
A: 7%

Q: What about the “severe TEAE asthenia, number of subjects” value [3] of the same molecule?
A: 4

Q: And the “severe TEAE hunger, number of subjects” value [3]?
A: 3

Q: What about the “severe TEAE hyperhidrosis, number of subjects” value [3] of the same molecule?
A: 5

Q: What about the “severe TEAE nervousness, number of subjects” value [3] of the same molecule?
A: 2

Q: What about the “severe TEAE somnolence, number of subjects” value [3] of the same molecule?
A: 5

Q: And the “severe TEAE tremor, % of subjects” value [3]?
A: 0.6%

Q: And the “severe TEAE tremor, number of subjects” value [3]?
A: 1
